In US20210169856A1, “FORMULATIONS COMPRISING DOPAMINE-B-HYDROXYLASE INHIBITORS AND METHODS FOR THEIR PREPARATION” (BIAL - PORTELA & CA, S.A., priority 2018, published 2021):

Assay: Solubility of Compound X, Ph. Eur. 6 / USP 33 descriptive terms
Format: physicochemical
From the text: In this specification, we are adopting the definitions of solubility from the classification in the European Pharmacopeia 6th Edition and the United States Pharmacopeia 33 (Reference Tables: Description and Solubility):
Further increase in pH results in solubility decrease. […] The pH-dependent solubility profile of Compound X presents certain challenges to the development of pharmaceutical formulations, namely for its dissolution.

Fc1cc(F)c2c(c1)C[C@@H](n1c(CCNCc3ccccc3)c[nH]c1=S)CO2 [Compound X]
practically insoluble: Solubility (ethanol)
decreases as the pH increases: pH dependence of solubility in aqueous medium (aqueous medium)
sparingly soluble: Solubility (N,N-methylpyrrolidone) | Solubility (acidified acetonitrile) | Solubility (acidified methanol) | Solubility (acidified water (pH 1.2-2.0)) | Solubility (dimethyl sulfoxide) | Solubility (dimethylformamide) | Solubility (tetrahydrofuran)
very slightly soluble: Solubility (acetonitrile) | Solubility (chloroform) | Solubility (ethyl acetate) | Solubility (isopropyl acetate) | Solubility (methanol) | Solubility (toluene)
slightly soluble: Solubility (acetone) | Solubility (dichloromethane) | Solubility (methyl ethyl ketone)
insoluble: Solubility (cyclohexane) | Solubility (iso-octane) | Solubility (isopropanol) | Solubility (water)
HCl 0.01 (pH 2.0): Medium of maximum solubility (aqueous medium)
